Source: EP0373195B1, “COMPOSITION FOR INCREASING MELANIN CONTENT OF MELANOCYTES IN-VIVO AND IN-VITRO AND METHODS FOR THE IN-VITRO USE THEREOF” (TRUSTEES OF BOSTON UNIVERSITY, priority 1988, dated 1989)

Assays:
S91 melanoma cells [1] = assay: Melanin content of S91 melanoma cells in culture; assay type: cell-based, murine; conditions: DMEM with 2% FBS, 37°C, 7 days
Procedure: To determine melanin content, the remaining suspension was centrifuged for 5 minutes in a microcentrifuge; the supernatant discarded; and the resulting cell pellet dissolved in 0.1 ml of a 1 M NaOH which was subsequently diluted with 0.4 ml of water. Melanin concentration was calculated by determination of optical density at 475 nanometers; and values extrapolated by comparison with a standard curve of determinations for synthetic melanin, a measurement of melanogenesis which correlates extremely well with ¹⁴C-DOPA incorporation and with tyrosinase activity [Friedmann and Gilchrest, J. Cell. Physiol. 133:88-94 (1987)]. Melanin values were expressed as total melanin per culture; or as melanin content per cell; or as percent of untreated controls.
This experimental series was performed to evaluate the effect of a DAG on melanocytes derived from animal sources, rather than humans. In this experimental series, murine S91 melanoma cells were grown and maintained in culture using conventional techniques [Friedmann and Gilchrest, J. Cell. Physiol. 133:88-94 (1987)]. The grown S91 melanoma cells were then combined with 100 »M of the preferred DAG, 1-oleoyl-2-acetyl-glycerol; or with 100 »M of 3-isobutyl-1-methylxanthine (IBMX). Each chemical agent was combined with the S91 melanoma cells in Dulbecco's […] Eagle's Medium containing 2% FBS at 37°C for 7 days. […]

human melanocytes [2] = assay: Dendricity (morphology) of cultured human melanocytes; assay type: cell-based
Procedure: In certain instances, phase contrast micrographs were taken using an inverted microscope after the cultures were washed once with phosphate buffered saline.
(§1) A first experimental series was performed which utilized human melanocytes combined with the preferred DAG, 1-oleoyl-2-acetyl-glycerol, selected for its efficiency of intercalating into melanocyte membranes. Neonatal foreskins obtained within two hours of elective circumcision were the source of human melanocytes. The epidermis was separated from the dermis after overnight incubation in 0.25% trypsin. Melanocytes were established in primary culture according to the procedure of Gilchrest et al. [J. Invest. Dermatol. 83:370-376 (1984)]. The preferred DAG was combined with human melanocytes in complete melanocyte medium and incubated together for a period of 6 days at 37°C.
(§2) A second experimental series was conducted in which the cultured human melanocytes were first pretreated with tetradecanoyl phorbol-13-acetate (hereinafter "TPA") at a concentration of 100 nM. Initially, the human melanocytes were obtained and grown as previously described. Subsequently, the cultured human melanocytes were combined with 100 nM of TPA in melanocyte medium and incubated at 37°C for 24 hours. The DAG was then added and the culture incubated again for 6 days. The melanin content of the cells was then evaluated in accordance with the procedure as previously described herein.

S91 melanoma cells [3] = assay: Proliferation of S91 melanoma cells in culture; assay type: cell-based, murine; conditions: DMEM with 2% FBS, 37°C, 7 days
Procedure: (§3) Melanocytes were seeded at 2 x 10⁴ cells per 35 mm dish and combined with KPGM supplemented with 2% FBS and 100 ug/ml of BHE, now designated as complete melanocyte medium. After 24 hours incubation at 37 C, the grown melanocyte cultures, in duplicate or triplicate, received one of the following: free complete melanocyte medium; or supplemented whole KDCM. Each melanocyte culture was then incubated for 6-7 days at 37 C. Subsequently, each melanocyte culture was harvested and the cell number per dish empirically determined. Each melanocyte culture was washed with a 0.4 mM EDTA in PBS; treated with 1 ml of a mixture containing 0.13% trypsin and 0.2 mM EDTA; then incubated approximately 10 minutes at 37 C; followed by addition of 1 ml of PBS. Subsequently, a 0.5 ml aliquot of each resulting suspension was diluted to 10 ml total volume using isotonic saline and processed using a particle counter (Model ZM, Colter Science).
This experimental series was performed to evaluate the effect of a DAG on melanocytes derived from animal sources, rather than humans. In this experimental series, murine S91 melanoma cells were grown and maintained in culture using conventional techniques [Friedmann and Gilchrest, J. Cell. Physiol. 133:88-94 (1987)]. […]

human melanocytes [4] = assay: Melanocyte bioassay: cell number / proliferation of cultured human melanocytes; assay type: cell-based
Procedure: as §3, §1, §2

human melanocytes [5] = assay: Melanocyte bioassay: melanin content of cultured human melanocytes; assay type: cell-based; conditions: for melanization / melanin content per human melanocyte (Fig. 3): DAG added after pretreatment with 100 nM TPA for 24 hours, then 6 days
Procedure: Melanocytes were seeded at 2 x 10^4 cells per 35 mm dish and combined with KPGM supplemented with 2% FBS and 100 ug/ml of BHE, now designated as complete melanocyte medium. After 24 hours incubation at 37 C, the grown melanocyte cultures, in duplicate or triplicate, received one of the following: free complete melanocyte medium; or supplemented whole KDCM. Each melanocyte culture was then incubated for 6-7 days at 37 C. Subsequently, each melanocyte culture was harvested and the cell number per dish empirically determined. Each melanocyte culture was washed with a 0.4 mM EDTA in PBS; treated with 1 ml of a mixture containing 0.13% trypsin and 0.2 mM EDTA; then incubated approximately 10 minutes at 37 C; followed by addition of 1 ml of PBS. Subsequently, a 0.5 ml aliquot of each resulting suspension was diluted to 10 ml total volume using isotonic saline and processed using a particle counter (Model ZM, Colter Science). To determine melanin content, the remaining suspension was centrifuged for 5 minutes in a microcentrifuge; the supernatant discarded; and the resulting cell pellet dissolved in 0.1 ml of a 1 M NaOH which was subsequently diluted with 0.4 ml of water. Melanin concentration was calculated by determination of optical density at 475 nanometers; and values extrapolated by comparison with a standard curve of determinations for synthetic melanin, a measurement of melanogenesis which correlates extremely well with 14C-DOPA incorporation and with tyrosinase activity [[…] and […]. Cell. Physiol. 133:88-94 (1987)]. Melanin values were expressed as total melanin per culture; or as melanin content per cell; or as percent of untreated controls. […] Neonatal foreskins obtained within two hours of elective circumcision were the source of human melanocytes. The epidermis was separated from the dermis after overnight incubation in 0.25% trypsin. Melanocytes were established in primary culture according to the procedure of […] et al. [J. Invest. Dermatol. 83:370-376 (1984)]. The preferred DAG was combined with human melanocytes in complete melanocyte medium and incubated together for a period of 6 days at 37°C. […] At an optimal concentration of 100 »M, this DAG produced an average of a 4 fold increase in cellular melanin content per cell over the untreated control. […] Initially, the human melanocytes were obtained and grown as previously described. Subsequently, the cultured human melanocytes were combined with 100 nM of TPA in melanocyte medium and incubated at 37°C for 24 hours. The DAG was then added and the culture incubated again for 6 days. The melanin content of the cells was then evaluated in accordance with the procedure as previously described herein. The results are graphically illustrated by Figs. 2 and 3 respectively.

[6] = DAG added after pretreatment with 100 nM TPA for 24 hours, then 6 days
[7] = agent alone (DAG 6 days; TPA 100 nM pretreatment)

Compound	melanin production in S91 melanoma cells in comparison to controls (Fig. 5) (S91 melanoma cells [1]; DAG)	induction of dendricity (human melanocytes [2]; [6])	dendricity of human melanocytes (human melanocytes [2]; DAG alone, 6 days at 37°C)	proliferation of S91 melanoma cells (Fig. 4) (S91 melanoma cells [3]; concentrations ranging from 1-200 uM)	melanocyte proliferation or growth (Figs. 1a and 1b) (human melanocytes [4]; 25 - 200 »M, 6 days at 37°C)	human melanocyte proliferation (Fig. 2) (human melanocytes [4]; [6])	human melanocyte proliferation (Fig. 2) (human melanocytes [4]; [7])	melanization / melanin content per human melanocyte (Fig. 3) (human melanocytes [5]; listed as DAG)	melanization / melanin content per human melanocyte (Fig. 3) (human melanocytes [5]; listed as diacylglycerol)	fold induction at 100 µM (human melanocytes [5]; Homo sapiens, 144 h, optimal concentration of 100 »M, 6 days at 37°C in complete melanocyte medium, read-out: increase in cellular melanin content per cell over the untreated control)	melanin content (Figs. 1a and 1b) (human melanocytes [5]; concentration levels 25 - 200 »M, 6 days at 37°C)	melanization (human melanocytes [5]; diacylglycerol alone, second experimental series, 6 days)	melanin production in S91 melanoma cells (Fig. 5) (S91 melanoma cells [1]; 100 »M)	proliferation / cellular growth of S91 melanoma cells (Fig. 4) (S91 melanoma cells [3]; 100 »M)	dendricity (human melanocytes [2]; TPA alone, 100 nM)
CCCCCCCC/C=C\CCCCCCCC(=O)OCC(CO)OC(C)=O (stereo not shown) [1-oleoyl-2-acetyl-glycerol]	consistently failed to induce any substantial increases in melanin production	equally effective at melanization and the induction of dendricity	did not increase the dendricity	effectively failed to induce proliferation	no meaningful effects on melanocyte proliferation or growth	neither the DAG analogue, nor the pretreatment with TPA, nor their combination has any substantial effect	neither the DAG analogue, nor the pretreatment with TPA, nor their combination has any substantial effect	major and significant increases in melanin content per human melanocyte as a function of TPA pretreatment in amounts meaningfully greater than that of the chosen DAG analogue alone	equally effective at melanization	4	clear dose dependent response to increased melanin content	induced increased melanization			
CC(C)Cn1c(=O)n(C)c(=O)c2[nH]cnc21 [IBMX, 3-isobutyl-1-methylxanthine, reference compound]													caused a major increase in melanin production	failed to produce any cellular growth	
tetradecanoyl phorbol-13-acetate [TPA, reference compound]							neither the DAG analogue, nor the pretreatment with TPA, nor their combination has any substantial effect								induced extreme dendricity
